The values that follow come from patent publication US20090215841A1, “D2 Receptor Ligand-078” (ASTRAZENECA AB, priority 2008, published 2009).

In general, pKi refers to the negative decadic logarithm of the Ki, by convention in mol/L. A high value points to a low Ki. One may read the pIC50 as the IC50 on a negative log10 scale, so that one unit is a factor of ten. A lower pIC50 goes with a high IC50.

The target in data set [1] is D2S receptor (Homo sapiens, UniProt P14416). As to the kind of experiment: D2 receptor binding assay ([3H]-raclopride displacement).
Chain of D2S receptor (P14416 1-414 isoform P14416-2): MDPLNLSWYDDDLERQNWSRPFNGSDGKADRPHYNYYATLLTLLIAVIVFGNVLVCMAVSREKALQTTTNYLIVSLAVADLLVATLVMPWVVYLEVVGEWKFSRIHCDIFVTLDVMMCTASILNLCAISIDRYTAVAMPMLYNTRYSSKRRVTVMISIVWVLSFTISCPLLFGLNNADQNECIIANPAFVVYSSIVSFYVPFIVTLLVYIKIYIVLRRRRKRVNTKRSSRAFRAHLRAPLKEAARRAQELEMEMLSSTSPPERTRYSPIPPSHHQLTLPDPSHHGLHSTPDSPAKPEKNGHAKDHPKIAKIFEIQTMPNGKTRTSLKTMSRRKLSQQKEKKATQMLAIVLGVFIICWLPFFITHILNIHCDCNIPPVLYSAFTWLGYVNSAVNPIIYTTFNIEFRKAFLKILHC
Procedure: The ability of test compounds to displace ^3H-raclopride at the D2S receptor was determined on membranes from D2s-transfected CHO cells (Bmax 13 pmol/mg protein). An assay uses a standard 96-well glass fiber filter plate to retain radioligand bound by the receptor. Retained ^3H is determined in a TopCount scintillation plate counter following the addition of a liquid scintillant to each well. Compounds are evaluated for their potency using competition curve analysis, resulting in calculated Ki values.
For data set [2], the target named is D2s receptor (membranes from D2s stably-transfected CHO cells) (Homo sapiens, UniProt P14416). The experiment in a line: GTPγS assay, block of dopamine-stimulated [35S]-GTPγS binding. (In general: Binding of GTPγS marks nucleotide exchange on a G protein.)
Chain of D2s receptor (membranes from D2s stably-transfected CHO cells) (P14416 1-414 isoform P14416-2): as above
Procedure: GTPγS assay was performed substantially as described by Lazareno. […] Antagonist activity of compounds was determined by the ability of test compounds to block dopamine-stimulated [^35S]-GTPγS binding to cell membranes from D2s stably-transfected CHO cells.
Data set [3] concerns rat plasma prolactin levels. The experiment in a line: Prolactin assay (plasma prolactin by ELISA). The class given is in vivo. The conditions noted are these: male Sprague Dawley rats, s.c., one-hour post dose. From the text: As discussed above, hyperprolactinemia is a side effect that can be observed following administration of D2 antagonists. In contrast, administration of D2 agonists to human subjects results in large reductions in prolactin levels in blood (hypoprolactinemia).
Male Sprague Dawley rats were subcutaneously administered with vehicle or test compounds. Trunk blood was collected one-hour post dose and plasma evaluated by an ELISA assay to determine prolactin levels.
In general terms: In an ELISA, binding on a coated surface is turned into a signal by an enzyme label.

The subject of data set [4] is Male Long-Evans rats. The experiment in a line: Conditioned Avoidance Responding (CAR) assay. The class given is in vivo, rat. The note with it: for motor impairment in CAR (shock escapes): dose not stated; for efficacy in CAR (shock avoidance): rats, dosed 60 min prior to testing. The method, then:
Male Long-Evans rats were trained to traverse to the opposite side of a standard shuttle cage following presentation of an auditory and visual stimulus in order to avoid delivery of electric shock to the floor of the cage. Daily sessions consisted of up to 80 trials. If shock was delivered, animals always had the opportunity to escape the shock by traversing to the opposite side of the cage. Drug was administered (via s.c. or p.o. route) 60 min prior to testing and the percentage of trials in which shock was avoided and escaped was recorded.

Data set [5] deals with D-amphetamine hyperlocomotion in habituated rats. As to the kind of experiment: D-amphetamine-induced hyperlocomotor activity (LMA) in habituated rat model. The note with it: in vivo, sc, 1 mg/kg.
Procedure: LMA was assessed in male Long Evans rats using a paradigm that included a habituation phase followed by administration of 1 mg/kg D-amphetamine. Animals were allowed to acclimatize to the testing room for 1 hour before being weighed and placed into activity chambers. Thirty minutes after LMA measurements began, animals were briefly removed, subcutaneously dosed with vehicle or test drug at different doses (μmol/kg), and returned to the chambers. After 30 minutes, animals were again removed and dosed with vehicle or D-amphetamine at 1 mg/kg (s.c.). After returning animals to the activity chambers, LMA was assessed for 60 minutes. […] Statistical analysis was made of total distance traveled after D-amphetamine administration using ANOVA and Tukey's post hoc analysis where appropriate. All values are expressed as Mean and SD.
Data set [6] relates to CF-1 male mice. As to the kind of experiment: Catalepsy assay, mice. Format: in vivo, mouse. As for the experimental part:
(§1) CF-1 male mice or Sprague Dawley rats are dosed (via i.p., p.o. or s.c. route) with a test compound at given concentrations or a vehicle. […] The length of time (in seconds) during which each mouse maintains the initial forepaw bar position is recorded (cataleptic pose). Maximum cut-off observation time is 60 seconds. Results are expressed as means (in sec) for each dose group.

The test system of data set [7] is Sprague Dawley rats. As to the kind of experiment: Catalepsy assay, rats. Format: in vivo, rat. The method, then:
as §1

pIC50, pKi: −log10 of the molar value.

For the molecule `CN[C@@H]1Cc2cc3nc(N)sc3cc2C1`, in data set [1], the pKi was 6.82. Also, the pIC50 in data set [2] was 6.38.
The like results for `CCN(CC)[C@@H]1Cc2cc3nc(N)sc3cc2C1` were, in that order, 7.66 and 7.13.
Consider `O=C1CCc2ccc(OCCCCN3CCN(c4cccc(Cl)c4Cl)CC3)cc2N1` [Aripiprazole], for which the “no observable effect level (NOEL) on plasma prolactin” value (“no observable effect level (NOEL)” below) in data set [3] was determined as 2.2 µmol/kg. Besides, in data set [4], the “motor impairment in CAR (shock escapes)” value is given as “exhibited motor impairment” and the “efficacy in CAR (shock avoidance)” value was “effective”.
`CCCN[C@@H]1Cc2cc3nc(N)sc3cc2C1` [Compound C3]: the “MED, reversal of LMA” value in data set [5] was determined as 10 µmol/kg. Besides, in data set [6] (30 μmol/kg), the catalepsy result was “exhibited catalepsy”. Moreover, the pKi in data set [1] is 6.94. The same molecule showed a pIC50 in data set [2] of 6.36. In data set [3], the “no observable effect level (NOEL)” value is 10 µmol/kg. For the same molecule, in data set [4], the “motor impairment in CAR (shock escapes)” value was “exhibited motor impairment” and the “efficacy in CAR (shock avoidance)” value is “effective”.
Take `O=C(CCCN1CCC(O)(c2ccc(Cl)cc2)CC1)c1ccc(F)cc1` [Haloperidol]: in data set [7], the catalepsy result is recorded as “induced catalepsy”. For the same molecule, the catalepsy entry in data set [6] (positive control) is listed as “induced catalepsy”. In data set [4], the “motor impairment in CAR (shock escapes)” value was “exhibited motor impairment” and the “efficacy in CAR (shock avoidance)” value is reported as “effective”.
As to `Cc1nc2n(c(=O)c1CCN1CCC(c3noc4cc(F)ccc34)CC1)CCCC2` [Risperidone], the “no observable effect level (NOEL)” value in data set [3] came to 0.07 µmol/kg.
